In patent US12570650B2, “6-substituted pyridazine compounds as SMARCA2 and/or SMARCA4 degraders” (Aurigene Oncology Limited, priority 2020, dated 2026):
Each block holds one molecule with its values, some of them ahead of it.

Columns and labels:
Format in all cases: cell-based
[1] = biological target: T1, SMARCA2 (Homo sapiens, UniProt P51531); experiment: SMARCA2 degradation in VCaP cells by Western blot; conditions: 16 hours
T1 construct: Determination of SMARCA2 and SMARCA4 Degradation in VCaP Cells by Western Blot; endogenous in cells; host or cells: VCaP (ATCC CRL-2876)
T1 sequence (P51531 whole entry): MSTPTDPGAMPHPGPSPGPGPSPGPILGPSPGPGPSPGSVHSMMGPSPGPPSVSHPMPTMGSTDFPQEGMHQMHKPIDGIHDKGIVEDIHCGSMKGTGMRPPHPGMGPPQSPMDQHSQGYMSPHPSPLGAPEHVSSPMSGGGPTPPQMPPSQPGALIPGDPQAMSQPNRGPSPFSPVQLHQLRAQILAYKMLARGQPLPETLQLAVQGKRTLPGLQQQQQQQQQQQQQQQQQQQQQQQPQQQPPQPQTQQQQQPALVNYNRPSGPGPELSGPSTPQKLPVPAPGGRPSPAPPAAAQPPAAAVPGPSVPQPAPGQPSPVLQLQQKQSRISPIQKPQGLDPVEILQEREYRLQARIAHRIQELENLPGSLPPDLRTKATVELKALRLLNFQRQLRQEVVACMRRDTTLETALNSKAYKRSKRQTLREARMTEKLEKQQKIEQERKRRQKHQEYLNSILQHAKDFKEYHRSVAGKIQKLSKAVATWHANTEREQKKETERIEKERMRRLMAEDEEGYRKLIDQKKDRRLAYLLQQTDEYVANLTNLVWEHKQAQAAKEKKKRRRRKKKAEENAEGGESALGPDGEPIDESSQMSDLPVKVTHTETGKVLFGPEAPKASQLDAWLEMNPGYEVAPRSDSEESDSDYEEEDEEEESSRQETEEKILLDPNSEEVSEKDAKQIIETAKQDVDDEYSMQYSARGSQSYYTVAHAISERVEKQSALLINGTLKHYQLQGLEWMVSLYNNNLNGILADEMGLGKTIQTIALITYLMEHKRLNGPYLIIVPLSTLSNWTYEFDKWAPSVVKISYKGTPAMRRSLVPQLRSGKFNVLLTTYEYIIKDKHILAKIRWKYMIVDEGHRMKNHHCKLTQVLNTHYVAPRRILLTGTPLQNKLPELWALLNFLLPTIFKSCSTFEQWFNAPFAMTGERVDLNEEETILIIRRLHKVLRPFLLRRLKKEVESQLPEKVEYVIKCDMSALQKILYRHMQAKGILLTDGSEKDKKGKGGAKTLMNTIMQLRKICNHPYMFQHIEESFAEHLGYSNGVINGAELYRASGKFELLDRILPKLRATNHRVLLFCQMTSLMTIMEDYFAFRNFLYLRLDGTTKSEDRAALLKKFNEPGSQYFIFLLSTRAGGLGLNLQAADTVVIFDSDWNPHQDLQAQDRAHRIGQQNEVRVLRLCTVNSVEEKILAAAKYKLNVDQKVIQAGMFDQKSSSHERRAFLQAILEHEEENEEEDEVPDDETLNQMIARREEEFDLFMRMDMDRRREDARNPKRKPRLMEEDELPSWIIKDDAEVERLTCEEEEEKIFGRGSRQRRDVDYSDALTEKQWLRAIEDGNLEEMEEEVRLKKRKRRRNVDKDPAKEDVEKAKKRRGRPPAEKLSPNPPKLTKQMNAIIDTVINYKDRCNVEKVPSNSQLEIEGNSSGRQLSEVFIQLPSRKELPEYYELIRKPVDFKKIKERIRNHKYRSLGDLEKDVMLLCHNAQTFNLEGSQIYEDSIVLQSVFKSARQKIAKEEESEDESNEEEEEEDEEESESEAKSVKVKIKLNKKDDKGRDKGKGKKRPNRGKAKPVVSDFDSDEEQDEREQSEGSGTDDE
Procedure: Example-P2: Determination of SMARCA2 and SMARCA4 Degradation in VCaP Cells by Western Blot
VCaP (ATCC CRL-2876) was plated in 6 well plates using complete Dulbecco's Modified Eagle's Medium. On the third day, compounds of present invention were added to cells from 10 mM stocks made in DMSO (Sigma Cat no. D2650). Each concentration of compound was tested with DMSO not exceeding final percentage of 0.3 in the cells. Cells were incubated with the compound for 16 hours followed by harvesting with 1×RIPA lysis buffer (Thermo Fischer, catalogue number #89900) containing protease inhibitor cocktail (Sigma catalogue number #P-8340). Equal amount of protein was loaded on SDS PAGE gel for electrophoresis. Western blot was carried out for detection of either SMARCA2 (Cell signalling technologies, catalogue number #11966) or SMARCA4 antibody (Cell signalling technologies, catalogue number #52251). Beta-Tubulin antibody (Cell signalling technologies, catalogue number #86298) was used as loading control. Percentage of SMARCA2 or SMARCA4 degradation was calculated using formula % Degradation=100−(normalized band intensity in treated sample/normalized band intensity in DMSO sample)*100.

[2] = biological target: T2, SMARCA4 (Homo sapiens, UniProt P51532); experiment: SMARCA4 degradation in VCaP cells by Western blot; conditions: 16 hours
T2 construct: Determination of SMARCA2 and SMARCA4 Degradation in VCaP Cells by Western Blot; endogenous in cells; host or cells: VCaP (ATCC CRL-2876)
T2 sequence (P51532 whole entry): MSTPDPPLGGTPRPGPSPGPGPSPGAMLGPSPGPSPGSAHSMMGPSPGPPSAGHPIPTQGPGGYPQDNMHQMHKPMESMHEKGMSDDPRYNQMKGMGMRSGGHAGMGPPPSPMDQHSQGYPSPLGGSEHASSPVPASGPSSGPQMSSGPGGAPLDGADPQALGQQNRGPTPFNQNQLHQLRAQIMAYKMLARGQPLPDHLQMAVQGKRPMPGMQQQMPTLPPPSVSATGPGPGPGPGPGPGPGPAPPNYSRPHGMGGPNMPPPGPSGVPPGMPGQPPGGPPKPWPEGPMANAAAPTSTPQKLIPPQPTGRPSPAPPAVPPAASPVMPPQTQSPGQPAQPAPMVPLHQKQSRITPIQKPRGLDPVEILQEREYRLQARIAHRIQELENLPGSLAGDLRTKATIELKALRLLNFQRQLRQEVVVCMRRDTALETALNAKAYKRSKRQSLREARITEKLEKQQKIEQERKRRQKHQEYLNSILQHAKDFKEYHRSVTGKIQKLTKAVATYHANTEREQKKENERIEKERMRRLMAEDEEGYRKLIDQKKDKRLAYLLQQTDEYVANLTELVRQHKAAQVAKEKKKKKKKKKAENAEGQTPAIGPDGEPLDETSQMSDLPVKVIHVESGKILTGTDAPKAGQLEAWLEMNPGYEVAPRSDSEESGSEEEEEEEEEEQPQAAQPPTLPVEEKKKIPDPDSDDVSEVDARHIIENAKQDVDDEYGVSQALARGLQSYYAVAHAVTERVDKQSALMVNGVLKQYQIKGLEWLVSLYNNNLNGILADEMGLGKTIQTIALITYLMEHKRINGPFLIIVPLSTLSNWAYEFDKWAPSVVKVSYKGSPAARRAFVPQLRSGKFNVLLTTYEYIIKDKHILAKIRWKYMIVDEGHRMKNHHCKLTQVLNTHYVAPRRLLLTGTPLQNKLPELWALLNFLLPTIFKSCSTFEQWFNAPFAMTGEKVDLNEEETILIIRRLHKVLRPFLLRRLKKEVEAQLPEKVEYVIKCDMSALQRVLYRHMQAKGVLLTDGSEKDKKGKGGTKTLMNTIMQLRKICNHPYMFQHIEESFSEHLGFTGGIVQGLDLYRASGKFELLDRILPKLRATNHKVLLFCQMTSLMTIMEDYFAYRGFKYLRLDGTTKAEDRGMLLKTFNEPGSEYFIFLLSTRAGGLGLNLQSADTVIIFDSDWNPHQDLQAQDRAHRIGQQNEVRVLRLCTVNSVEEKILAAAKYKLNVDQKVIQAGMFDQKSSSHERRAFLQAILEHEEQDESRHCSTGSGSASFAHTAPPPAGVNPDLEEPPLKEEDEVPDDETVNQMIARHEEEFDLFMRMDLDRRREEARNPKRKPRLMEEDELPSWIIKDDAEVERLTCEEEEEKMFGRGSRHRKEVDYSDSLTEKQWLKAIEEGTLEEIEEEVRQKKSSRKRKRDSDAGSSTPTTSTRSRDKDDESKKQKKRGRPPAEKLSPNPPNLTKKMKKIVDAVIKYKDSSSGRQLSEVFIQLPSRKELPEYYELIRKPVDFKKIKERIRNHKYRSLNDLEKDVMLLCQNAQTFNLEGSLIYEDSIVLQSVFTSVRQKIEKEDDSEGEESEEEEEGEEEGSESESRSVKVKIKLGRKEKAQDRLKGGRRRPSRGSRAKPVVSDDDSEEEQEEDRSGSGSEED
Procedure: On the third day, compounds of present invention were added to cells from 10 mM stocks made in DMSO (Sigma Cat no. D2650). Each concentration of compound was tested with DMSO not exceeding final percentage of 0.3 in the cells. […] Equal amount of protein was loaded on SDS PAGE gel for electrophoresis. […] Percentage of SMARCA2 or SMARCA4 degradation was calculated using formula % Degradation=100−(normalized band intensity in treated sample/normalized band intensity in DMSO sample)*100.

[3] = test system: SK-MEL-5 cells; experiment: Anti proliferative activity, Cell Titer Glo assay, SK-MEL-5; conditions: Homo sapiens, retreatment Day 4, terminated day 8, CellTiter-Glo
Procedure: Example-P3: Determination of Anti Proliferative Activity of Compounds by Cell Titer Glo®(Promega) Assay
Cells were seeded into 96-well plates and the plate was incubated in 37 degrees incubator overnight. The next day, compounds were diluted 3-fold to cover 9-point concentration range in DMSO. Intermediate plate dilution was prepared in media followed with compound treatment in cells. Retreatment of cells with compound dilutions was performed on Day 4 and assay was terminated on day 8 for SK-MEL-5 cells using CellTiter-Glo and the plate was kept on orbital shaker for 20 minutes at RT. Assay was terminated on day 6 for RERF-LC-A1 without a compound retreatment. Luminescence signal was recorded on VICTOR^3 instrument. Percent inhibition of proliferation was calculated at each concentration and plotted against the compound concentration. EC50 value was calculated using GraphPad software.

Structure (SMILES): Cc1ncsc1-c1ccc([C@H](C)NC(=O)[C@@H]2C[C@@H](O)CN2C(=O)[C@@H](NC(=O)CN2CCC(c3ccc(-c4cnnc(-c5cc(F)ccc5O)c4)cc3)CC2)C(C)(C)C)cc1 [Compound 13, (2S,4R)-1-((S)-2-(2-(4-(4-(6-(5-fluoro-2-hydroxyphenyl)pyridazin-4-yl)phenyl)piperidin-1-yl)acetamido)-3,3-dimethylbutanoyl)-4-hydroxy-N-((S)-1-(4-(4-methylthiazol-5-yl)phenyl)ethyl)pyrrolidine-2-carboxamide]
- Percent degradation (at 100 nM) SMARCA2 [1]: 17%
- Percent degradation (at 100 nM) SMARCA4 [2]: 0%
- EC50 ([3]; SK-MEL-5, SK-MEL-5 cells): > 500 nM

Structure (SMILES): Cc1ncsc1-c1ccc([C@H](C)NC(=O)[C@@H]2C[C@@H](O)CN2C(=O)[C@@H](NC(=O)CN2CCC(c3ccc(-c4cnnc(-c5ccccc5O)c4)cc3F)CC2)C(C)(C)C)cc1 [Compound 15, (2S,4R)-1-((S)-2-(2-(4-(2-fluoro-4-(6-(2-hydroxyphenyl)pyridazin-4-yl)phenyl)piperidin-1-yl)acetamido)-3,3-dimethylbutanoyl)-4-hydroxy-N-((S)-1-(4-(4-methylthiazol-5-yl)phenyl)ethyl)pyrrolidine-2-carboxamide]
- Percent degradation (at 100 nM) SMARCA2 [1]: 60%
- Percent degradation (at 100 nM) SMARCA4 [2]: 0%
- EC50 ([3]; SK-MEL-5, SK-MEL-5 cells): > 500 nM

Structure (SMILES): Cc1ncsc1-c1ccc([C@H](C)NC(=O)[C@@H]2C[C@@H](O)CN2C(=O)[C@@H](NC(=O)C2CCN(c3ccc(-c4cnnc(-c5ccccc5O)c4)cc3)CC2)C(C)(C)C)cc1 [Compound 16, N-((S)-1-((2S,4R)-4-hydroxy-2-(((S)-1-(4-(4-methylthiazol-5-yl)phenyl)ethyl)carbamoyl)pyrrolidin-1-yl)-3,3-dimethyl-1-oxobutan-2-yl)-1-(4-(6-(2-hydroxyphenyl)pyridazin-4-yl)phenyl)piperidine-4-carboxamide]
- Percent degradation (at 100 nM) SMARCA2 [1]: 76%
- Percent degradation (at 100 nM) SMARCA4 [2]: 0%
- EC50 ([3]; SK-MEL-5, SK-MEL-5 cells): < 250 nM

Structure (SMILES): Cc1ncsc1-c1ccc([C@H](C)NC(=O)[C@@H]2C[C@@H](O)CN2C(=O)[C@@H](NC(=O)CC2CCC(c3ccc(-c4cnnc(-c5ccccc5O)c4)cc3)CC2)C(C)(C)C)cc1 (stereo partly drawn) [Compound 17, (2S,4R)-4-hydroxy-1-((S)-2-(2-(4-(4-(6-(2-hydroxyphenyl)pyridazin-4-yl)phenyl)cyclohexyl)acetamido)-3,3-dimethylbutanoyl)-N-((S)-1-(4-(4-methylthiazol-5-yl)phenyl)ethyl)pyrrolidine-2-carboxamide]
- EC50 ([3]; SK-MEL-5, SK-MEL-5 cells): > 500 nM

Structure (SMILES): Cc1ncsc1-c1ccc([C@H](C)NC(=O)[C@@H]2C[C@@H](O)CN2C(=O)[C@@H](NC(=O)C2CCC(c3ccc(-c4cnnc(-c5ccccc5O)c4)cc3)CC2)C(C)(C)C)cc1 (stereo partly drawn) [Compound 18, (2S,4R)-4-hydroxy-1-((S)-2-(4-(4-(6-(2-hydroxyphenyl)pyridazin-4-yl)phenyl)cyclohexane-1-carboxamido)-3,3-dimethylbutanoyl)-N-((S)-1-(4-(4-methylthiazol-5-yl)phenyl)ethyl)pyrrolidine-2-carboxamide]
- Percent degradation (at 100 nM) SMARCA2 [1]: 95%
- Percent degradation (at 100 nM) SMARCA4 [2]: 0%
- EC50 ([3]; SK-MEL-5, SK-MEL-5 cells): < 250 nM

Structure (SMILES): Cc1ncsc1-c1ccc([C@H](C)NC(=O)[C@@H]2C[C@@H](O)CN2C(=O)[C@@H](NC(=O)CN2CCCC(c3ccc(-c4cnnc(-c5ccccc5O)c4)cc3)C2)C(C)(C)C)cc1 (stereo partly drawn) [Compound 20, (2S,4R)-4-hydroxy-1-((2S)-2-(2-(3-(4-(6-(2-hydroxyphenyl)pyridazin-4-yl)phenyl)piperidin-1-yl)acetamido)-3,3-dimethylbutanoyl)-N-((S)-1-(4-(4-methylthiazol-5-yl)phenyl)ethyl)pyrrolidine-2-carboxamide]
- Percent degradation (at 100 nM) SMARCA2 [1]: 41%
- Percent degradation (at 100 nM) SMARCA4 [2]: 0%
- EC50 ([3]; SK-MEL-5, SK-MEL-5 cells): 250 to 500 nM

Structure (SMILES): Cc1ncsc1-c1ccc([C@H](C)NC(=O)[C@@H]2C[C@@H](O)CN2C(=O)[C@@H](NC(=O)CN2CCC(c3ccc(-c4cnnc(-c5ccccc5O)c4)cc3)C2)C(C)(C)C)cc1 (stereo partly drawn) [Compound 22, (2S,4R)-4-hydroxy-1-((2S)-2-(2-(3-(4-(6-(2-hydroxyphenyl)pyridazin-4-yl)phenyl)pyrrolidin-1-yl)acetamido)-3,3-dimethylbutanoyl)-N-((S)-1-(4-(4-methylthiazol-5-yl)phenyl)ethyl)pyrrolidine-2-carboxamide]
- EC50 ([3]; SK-MEL-5, SK-MEL-5 cells): > 500 nM

Structure (SMILES): Cc1ncsc1-c1ccc([C@H](C)NC(=O)[C@@H]2C[C@@H](O)CN2C(=O)[C@@H](NC(=O)CN2CCC(c3ccc(-c4cnnc(-c5ccccc5O)c4)cn3)CC2)C(C)(C)C)cc1 [Compound 27, (2S,4R)-4-hydroxy-1-((S)-2-(2-(4-(5-(6-(2-hydroxyphenyl)pyridazin-4-yl)pyridin-2-yl)piperidin-1-yl)acetamido)-3,3-dimethylbutanoyl)-N-((S)-1-(4-(4-methylthiazol-5-yl)phenyl)ethyl)pyrrolidine-2-carboxamide]
- EC50 ([3]; SK-MEL-5, SK-MEL-5 cells): > 500 nM

Structure (SMILES): Cc1ncsc1-c1ccc([C@H](C)NC(=O)[C@@H]2C[C@@H](O)CN2C(=O)[C@@H](NC(=O)CN2CCC(Nc3ccc(-c4cnnc(-c5ccccc5O)c4)cc3)CC2)C(C)(C)C)cc1 [Compound 45, (2S,4R)-4-hydroxy-1-((S)-2-(2-(4-((4-(6-(2-hydroxyphenyl)pyridazin-4-yl)phenyl)amino)piperidin-1-yl)acetamido)-3,3-dimethylbutanoyl)-N-((S)-1-(4-(4-methylthiazol-5-yl)phenyl)ethyl)pyrrolidine-2-carboxamide]
- Percent degradation (at 100 nM) SMARCA2 [1]: 94%
- EC50 ([3]; SK-MEL-5 cells): < 250 nM

The remaining lines, values ahead:

- Percent degradation (at 100 nM) SMARCA2 [1]: 79%
- Percent degradation (at 100 nM) SMARCA4 [2]: 0%
- EC50 ([3]; SK-MEL-5, SK-MEL-5 cells): < 250 nM
Structure (SMILES): Cc1ncsc1-c1ccc([C@H](C)NC(=O)[C@@H]2C[C@@H](O)CN2C(=O)[C@@H](NC(=O)C(C)N2CCN(c3ccc(-c4cnnc(-c5ccccc5O)c4)cc3)CC2)C(C)(C)C)cc1 (single isomer, unassigned) [Compound 30]

- Percent degradation (at 100 nM) SMARCA2 [1]: 6%
- Percent degradation (at 100 nM) SMARCA4 [2]: 3%
Structure (SMILES): Cc1ncsc1-c1ccc([C@H](C)NC(=O)[C@@H]2C[C@@H](O)CN2C(=O)[C@@H](NC(=O)CN2CCN(c3ccc(-c4cnnc(-c5cccc6ccoc56)c4)cc3)CC2)C(C)(C)C)cc1 [Compound 40, (2S,4R)-1-((S)-2-(2-(4-(4-(6-(benzofuran-7-yl)pyridazin-4-yl)phenyl)piperazin-1-yl)acetamido)-3,3-dimethylbutanoyl)-4-hydroxy-N-((S)-1-(4-(4-methylthiazol-5-yl)phenyl)ethyl)pyrrolidine-2-carboxamide]

- Percent degradation (at 100 nM) SMARCA2 [1]: 12%
- Percent degradation (at 100 nM) SMARCA4 [2]: 22%
Structure (SMILES): Cc1ncsc1-c1ccc([C@H](C)NC(=O)[C@@H]2C[C@@H](O)CN2C(=O)[C@@H](NC(=O)CN2CCN(c3ccc(-c4cnnc(-c5cccc6cn[nH]c56)c4)cc3)CC2)C(C)(C)C)cc1 [Compound 41, (2S,4R)-1-((S)-2-(2-(4-(4-(6-(1H-indazol-7-yl)pyridazin-4-yl)phenyl)piperazin-1-yl)acetamido)-3,3-dimethylbutanoyl)-4-hydroxy-N-((S)-1-(4-(4-methylthiazol-5-yl)phenyl)ethyl)pyrrolidine-2-carboxamide]

- Percent degradation (at 100 nM) SMARCA2 [1]: 90%
- Percent degradation (at 100 nM) SMARCA4 [2]: 21%
Structure (SMILES): Cc1ncsc1-c1ccc([C@H](CO)NC(=O)[C@@H]2C[C@@H](O)CN2C(=O)[C@@H](NC(=O)CN2CCN(c3ccc(-c4cnnc(-c5ccccc5O)c4)cc3)CC2)C(C)(C)C)cc1 [Compound 48, (2S,4R)-4-hydroxy-N-((R)-2-hydroxy-1-(4-(4-methylthiazol-5-yl)phenyl)ethyl)-1-((S)-2-(2-(4-(4-(6-(2-hydroxyphenyl)pyridazin-4-yl)phenyl)piperazin-1-yl)acetamido)-3,3-dimethylbutanoyl)pyrrolidine-2-carboxamide]

- Percent degradation (at 100 nM) SMARCA2 [1]: 93%
- Percent degradation (at 100 nM) SMARCA4 [2]: 48%
Structure (SMILES): Cc1ncsc1-c1ccc(C(CN(C)C)NC(=O)[C@@H]2C[C@@H](O)CN2C(=O)[C@@H](NC(=O)CN2CCN(c3ccc(-c4cnnc(-c5ccccc5O)c4)cc3)CC2)C(C)(C)C)cc1 (stereo partly drawn) [Compound 49, (2S,4R)-N-(2-(dimethylamino)-1-(4-(4-methylthiazol-5-yl)phenyl)ethyl)-4-hydroxy-1-((S)-2-(2-(4-(4-(6-(2-hydroxyphenyl)pyridazin-4-yl)phenyl)piperazin-1-yl)acetamido)-3,3-dimethylbutanoyl)pyrrolidine-2-carboxamide]
